Laboratory results as given in PMC3688963, “Biochemical Characterization of Hypothetical Proteins from Helicobacter pylori” (PLoS ONE, 2013).

Molecular target: T1, HP1079 (Helicobacter pylori, UniProt O25711)
T1 construct: gene HP_1079; native protein captured with GTP-coated nano-particles; His6 recombinant also made
T1 sequence (O25711 1-370): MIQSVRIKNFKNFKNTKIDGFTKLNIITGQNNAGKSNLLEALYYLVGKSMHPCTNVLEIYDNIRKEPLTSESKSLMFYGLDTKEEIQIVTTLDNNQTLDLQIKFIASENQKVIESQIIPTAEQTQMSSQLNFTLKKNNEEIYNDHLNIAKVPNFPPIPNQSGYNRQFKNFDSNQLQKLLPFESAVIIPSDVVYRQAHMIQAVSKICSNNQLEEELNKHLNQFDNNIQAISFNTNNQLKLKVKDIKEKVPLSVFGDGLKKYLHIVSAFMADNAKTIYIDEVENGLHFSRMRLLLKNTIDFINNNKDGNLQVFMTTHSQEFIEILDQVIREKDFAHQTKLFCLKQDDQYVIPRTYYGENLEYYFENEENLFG
Experiment: phosphate release, malachite green
Type: biochemical
Details: 10 mM MgCl2, 10% glycerol, 100 mM sodium acetate pH 6.0, 30°C; read-out: Km (mM)^bc
Excerpt: phosphate release, malachite green on HP1079

Nc1ncnc2c1ncn2[C@@H]1O[C@H](COP(=O)(O)OP(=O)(O)OP(=O)(O)O)[C@@H](O)[C@H]1O [ATP]
Km: 1.02 ± 0.05 mM
